Patent US20250281564A1, “DYSREGULATION OF NEUROPROTEASOMES BY APOE ISOFORMS DRIVES ENDOGENOUS TAU AGGREGATION” (The Trustees of Columbia University in the City of New York, priority 2022, published 2025)

Legend:
[1] = tested on: Tau; test: Sarkosyl-insoluble Tau in hippocampus of hTau-KI mice after stereotactic injection; format: in vivo, mouse; conditions: 6.4 μM iBEp stereotactic, contralateral vehicle, 72 hours
[2] = tested on: phosphorylated Tau; test: Immunocytochemistry for phosphorylated Tau (CP13) in hTau-KI hippocampal neurons; format: cell-based, mouse; conditions: 12 hours, primary hippocampal hTau-KI neurons, vs controls
[3] = tested on: endogenous mouse Tau; test: Sarkosyl fractionation and Tau immunoblot, WT primary cortical neurons; format: cell-based; conditions: 1 μM, 12 hours, vs DMSO
Text: (§1) (FIG. 5A) Effect of neuroproteasome-specific inhibitor iBEp on Tau aggregation in primary neurons. […] Quantification of soluble and insoluble murine Tau (mTau) intensities normalized to soluble GAPDH. […] (FIG. 5B) Effect of neuroproteasome inhibition on aggregation of human Tau (hTau). […] (FIG. 5C) Generation of reversible neuroproteasome inhibitors to test effects of neuroproteasome inhibition. (Top) Structure of Sulfo-MG132 (SulfoMG). […] (FIG. 5D) Effect of reversible neuroproteasome inhibition using SulfoMG on Tau aggregation. […] Quantification of soluble and insoluble Tau intensities were normalized to soluble GAPDH. Data (right) are mean±SEM normalized respective to DMSO controls. […] (FIG. 5E) Testing iBEp permeability in vivo. […] 72 hours post injection, hippocampi were isolated and subjected to membrane fractionation without detergent. […] (FIG. 5F) Effect of neuroproteasome inhibition on Tau aggregation in vivo.

[4] = tested on: human Tau; test: Sarkosyl fractionation and Tau immunoblot, hTau-KI primary cortical neurons; format: cell-based; conditions: 1 μM, 12 hours, vs DMSO
Text: as §1

[5] = target: proteasome (Homo sapiens, UniProt P28072+P28074+Q99436); test: Efficacy against the proteasome relative to the parent inhibitor; format: biochemical
Text: (§2) We next tested the potency and selectivity of iBEp relative to Epoxomicin. Epoxomicin covalently and irreversibly binds the catalytic β subunits of the proteasome-therefore, the biotin moiety on iBEp serves as a tracer to detect whether proteasomes are inhibited by monitoring biotin signal on an SDS-PAGE gel (83, 87-89). […] This is supported by previous data that modification of the non-reactive end of epoxomicin has been shown not to change the selectivity of Epoxomicin for the proteasome (83, 87-89). […] We therefore chose doses of inhibitor where the effective concentration of the inhibitor was similar to previous studies using Epoxomicin alone and well within the acceptable range of efficacy given how potent Epoxomicin is as a proteasome inhibitor.
Many of our experiments rely on the use of iBEp because the biotin tracer on an irreversible and specific inhibitor allows us to track which proteasomes are inhibited. However, we wanted to validate our findings using a proteasome inhibitor with a distinct mechanism of action from Epoxomicin. We therefore modified MG132, a reversible peptide aldehyde proteasome inhibitor, with a sulfonated biotin linker on the nonreactive N-terminus (84). […] Instead, we turned to cellular and functional readouts of permeability. […]

[6] = tested on: Thioflavin S-positive aggregates; test: Thioflavin S staining of hippocampal sections of hTau-KI mice after stereotactic injection; conditions: stereotactic injection, 72 hours, vs vehicle
Experimental: (§4) Scale bars=15 μm (FIG. 6C) Immunohistochemical analysis of mice stereotactically injected with iBEp to measure Tau phosphorylation in vivo. […] Mice were collected 72 hours post injection and sections were stained using indicated antibodies: NeuN (blue) and AT8 (pTau, green). 4×, 20× and 60× representative images are shown. Quantification of pTau signal intensity was normalized to NeuN intensity. Analysis was done blinded to experimental condition. Data are mean±SEM normalized either to DMSO or iBEP+CHX. n=2 sections/animal, ** p<0.01 by Paired T-test/experiment. Scale bars=500 μm (left), scale bar=25 μm (right). (FIG. 6D) Immunohistochemical analysis of mice stereotactically injected with iBEp to measure Thioflavin-S positive Tau aggregates in vivo. Four-to-five month old hTau-KI mice were treated identically to (FIG. 6C), but stained for Thioflavin S (magenta) to visualize β-sheet containing aggregates and immunostained with NeuN (blue). N=7 (3M, 4F). Left, Vehicle-treated hippocampus, Right, iBEp-treated hippocampus (red). […] Data are quantification of number of flame-like Thioflavin-S positive inclusions. Counting and analysis was blinded to experimental condition. *** p<0.001 by one-way ANOVA. Scale bars=100 μm. (FIG. 6E) Higher magnification image of flame-like Thioflavin S-positive inclusions (magenta), NeuN (blue). Top, ThioS alone, Bottom, merge with NeuN. Scale bar=20 μm. […]

[7] = tested on: primary cortical neurons; test: Quantitative TMT proteomics of sarkosyl-soluble and sarkosyl-insoluble fractions; format: cell-based, mouse; conditions: 1 and 6 hours
Text: (FIG. 4A) (Top) Structure of azide-PEG24-epoxomicin handle to enable rapid conjugation of linkers to global proteasome inhibitor epoxomicin using Click chemistry. (Bottom) Structure of Neuroproteasome-specific inhibitor impermeant Biotin-PEG24-Epoxomicin (iBEp). (FIG. 4B) Assessing permeability of iBEp in primary neurons. […] Cytosolic (Cyto) and membrane (Mem) fractions were immunoblotted using indicated antibodies. (FIG. 4C) Proteasome catalytic activity of membrane (Mem) and cytosolic (Cyto) fractions of neurons treated with iBEp. […] Proteasome catalytic activity was assessed by monitoring degradation of Suc-LLVY-AMC; proteasome-dependent cleavage of the substrate increases AMC fluorescence. N=3 biological replicates. **** p<0.0001 by One-Way ANOVA. (FIG. 4D) Primary neurons treated with iBEp probed for autophagy markers. […] Lysates were immunoblotted using indicated antibodies against common autophagy markers. Quantification of p62, LC3b, and Ulk1 intensities normalized to Actin. […] (FIG. 4E) Schematic to analyze changes in sarkosyl-soluble and insoluble proteomes in response to neuroproteasome inhibition. […] Sarkosyl-soluble and insoluble fractions were labeled with Tandem Mass Tags (TMTpro) for quantitative mass spectrometry. (FIG. 4F) Differential enrichment of proteins in the sarkosyl-soluble fraction of neurons treated with iBEp versus DMSO was analyzed and plotted as log 2-fold change vs-log 10 (P-value). Green dots represent proteins enriched in the iBEp treatment compared to DMSO treatment. (FIG. 4G) Graphs plotting the log 2-fold change of select Neuroproteasome substrates enriched in the sarkosyl-soluble fraction from MS analysis in (FIG. 4F) compared to UPS substrates and autophagy markers ** p<0.01 (adjusted p-value after multiple corrections). (FIG. 4H) Differential enrichment of proteins in the sarkosyl-insoluble fraction of neurons treated with iBEp versus DMSO was analyzed and plotted as log 2-fold change vs −log 10 (P-value). Green dots represent proteins enriched in the iBEp treatment compared to DMSO treatment. […]

[8] = tested on: primary cortical neurons; test: Permeability of iBEp in primary cortical neurons: membrane fractionation and biotin blot; format: cell-based, mouse; conditions: 1 μM, 1, 6 and 24 hours, cytosolic vs membrane fraction
Text: (§3) (FIG. 4A) (Top) Structure of azide-PEG24-epoxomicin handle to enable rapid conjugation of linkers to global proteasome inhibitor epoxomicin using Click chemistry. (Bottom) Structure of Neuroproteasome-specific inhibitor impermeant Biotin-PEG24-Epoxomicin (iBEp). (FIG. 4B) Assessing permeability of iBEp in primary neurons. […] Cytosolic (Cyto) and membrane (Mem) fractions were immunoblotted using indicated antibodies. (FIG. 4C) Proteasome catalytic activity of membrane (Mem) and cytosolic (Cyto) fractions of neurons treated with iBEp. […] Proteasome catalytic activity was assessed by monitoring degradation of Suc-LLVY-AMC; proteasome-dependent cleavage of the substrate increases AMC fluorescence. N=3 biological replicates. **** p<0.0001 by One-Way ANOVA. (FIG. 4D) Primary neurons treated with iBEp probed for autophagy markers. […] Quantification of p62, LC3b, and Ulk1 intensities normalized to Actin. […] Sarkosyl-soluble and insoluble fractions were labeled with Tandem Mass Tags (TMTpro) for quantitative mass spectrometry. (FIG. 4F) Differential enrichment of proteins in the sarkosyl-soluble fraction of neurons treated with iBEp versus DMSO was analyzed and plotted as log 2-fold change vs-log 10 (P-value). […] (FIG. 4H) Differential enrichment of proteins in the sarkosyl-insoluble fraction of neurons treated with iBEp versus DMSO was analyzed and plotted as log 2-fold change vs −log 10 (P-value). […]

[9] = target: T1, cytosolic proteasomes (Mus musculus, UniProt O55234+P70195+Q60692); test: Suc-LLVY-AMC proteasome activity, cytosolic fraction of iBEp-treated neurons; format: cell-based; conditions: 6 hours, DIV14 neurons, vs DMSO
T1 construct: endogenous in cells; host or cells: primary cortical neurons from WT mice (DIV13-14); membrane and cytosolic fractions
Text: as §3

[10] = tested on: Tau; test: Quantitative TMT phosphoproteomics of Tau in iBEp-treated WT neurons; format: cell-based, mouse; conditions: 1 μM, 1, 6 or 24 hours, WT primary neurons
Text: We noticed that neuroproteasome inhibition induces the shift of sarkosyl-insoluble Tau into a species which migrates at a higher molecular weight on an SDS-PAGE gel, at approximately 64 kDa (FIG. 5A, FIG. 5B, FIG. 5D, FIG. 5F, FIG. 5G). Similar shifts in molecular weight of Tau are observed in the AD brain and is a hallmark phenotype of multiple neurodegenerative disorders (109, 110). This molecular weight shift can in part be due to Tau phosphorylation at many residues. Therefore, we wanted to address whether iBEp-induced Tau aggregates are phosphorylated. Rather than profiling by a panel of phospho-specific antibodies against Tau, we took a more unbiased approach and measured Tau phosphorylation by quantitative phosphoproteomics. We treated primary WT neurons with iBEp for either 1, 6, or 24 hours and then performed sarkosyl fractionations.

[11] = target: T2, neuroproteasomes (Mus musculus, UniProt O55234+P70195+Q60692); test: Suc-LLVY-AMC proteasome activity, membrane fraction of iBEp-treated neurons; format: cell-based; conditions: 6 hours, DIV14 neurons, vs DMSO
T2 construct: endogenous in cells; host or cells: primary cortical neurons from WT mice (DIV13-14); membrane and cytosolic fractions
Text: as §3

[12] = target: T3, proteasome (Mus musculus, UniProt O55234+P70195+Q60692); test: Covalent biotinylation of proteins in iBEp-treated neurons (SDS-PAGE biotin signal); format: cell-based
T3 construct: endogenous in cells
Text: as §2

[13] = iBEp permeability in vivo: stereotactic CA1 injection and membrane fractionation; parameters: species or system mouse; conditions: stereotactic injection into CA1, 72 hours
[14] = tested on: Tau; test: iBEp dose range in hTau/ApoE double KI primary neurons, sarkosyl-insoluble Tau; format: cell-based, mouse
[15] = tested on: newly synthesized Tau; test: Puro-PLA-Tau: proximity ligation with puromycylation for newly synthesized Tau; format: cell-based
Text: Analysis was done blinded to experimental condition. […] Scale bar=100 μm (right).

[16] = tested on: p62, LC3bI/II, Ulk1; test: Autophagy marker immunoblot in primary neurons; format: cell-based, mouse; conditions: 12 hours, DIV14 WT primary cortical neurons
Text: (FIG. 4A) (Top) Structure of azide-PEG24-epoxomicin handle to enable rapid conjugation of linkers to global proteasome inhibitor epoxomicin using Click chemistry. (Bottom) Structure of Neuroproteasome-specific inhibitor impermeant Biotin-PEG24-Epoxomicin (iBEp). (FIG. 4B) Assessing permeability of iBEp in primary neurons. […] Cytosolic (Cyto) and membrane (Mem) fractions were immunoblotted using indicated antibodies. (FIG. 4C) Proteasome catalytic activity of membrane (Mem) and cytosolic (Cyto) fractions of neurons treated with iBEp. […] Proteasome catalytic activity was assessed by monitoring degradation of Suc-LLVY-AMC; proteasome-dependent cleavage of the substrate increases AMC fluorescence. N=3 biological replicates. **** p<0.0001 by One-Way ANOVA. (FIG. 4D) Primary neurons treated with iBEp probed for autophagy markers. […] Lysates were immunoblotted using indicated antibodies against common autophagy markers. Quantification of p62, LC3b, and Ulk1 intensities normalized to Actin. […] (FIG. 4E) Schematic to analyze changes in sarkosyl-soluble and insoluble proteomes in response to neuroproteasome inhibition. […] Sarkosyl-soluble and insoluble fractions were labeled with Tandem Mass Tags (TMTpro) for quantitative mass spectrometry. (FIG. 4F) Differential enrichment of proteins in the sarkosyl-soluble fraction of neurons treated with iBEp versus DMSO was analyzed and plotted as log 2-fold change vs-log 10 (P-value). Green dots represent proteins enriched in the iBEp treatment compared to DMSO treatment. (FIG. 4G) Graphs plotting the log 2-fold change of select Neuroproteasome substrates enriched in the sarkosyl-soluble fraction from MS analysis in (FIG. 4F) compared to UPS substrates and autophagy markers ** p<0.01 (adjusted p-value after multiple corrections). (FIG. 4H) Differential enrichment of proteins in the sarkosyl-insoluble fraction of neurons treated with iBEp versus DMSO was analyzed and plotted as log 2-fold change vs −log 10 (P-value). Green dots represent proteins enriched in the iBEp treatment compared to DMSO treatment. (FIG. 4I) (Left) Identification of proteins which are exclusively enriched in the insoluble fraction with no corresponding change in the soluble fraction (red). Plk2 represents the only protein which is enriched in the soluble fraction with no corresponding change in the insoluble fraction (green). Proteins plotted as differences in log 2 fold changes. (Right) Graphs plotting the log 2 fold changes of insoluble Tau (top) and soluble Tau (bottom) enriched in neurons treated with iBEp vs DMSO. ** p<0.01 (adjusted p-value after multiple corrections).
FIG. 5A-5G: Neuroproteasomes are differentially regulated by ApoE isoforms to determine formation of endogenous sarkosyl-insoluble Tau inclusions. […]

[17] = tested on: phosphorylated Tau; test: Immunohistochemistry for phosphorylated Tau (AT8) in hTau-KI mice after stereotactic injection; conditions: stereotactic injection, 72 hours, vs contralateral control
Experimental: as §4

[18] = dose range 1000-1.6 nM, hTau/ApoE double KI neurons

With `CC[C@H](C)[C@H](NC(=O)CCOCCOCCOCCOCCOCCOCCOCCOCCOCCOCCOCCOCCOCCOCCOCCOCCOCCOCCOCCOCCOCCOCCOCCOCCn1cc(COCCOCCOCCOCCNC(=O)CCCC[C@@H]2SC[C@@H]3NC(=O)N[C@@H]32)nn1)C(=O)N[C@H](C(=O)N[C@H](C(=O)N[C@@H](CC(C)C)C(=O)[C@@]1(C)CO1)[C@@H](C)O)[C@@H](C)CC` [iBEp, Biotin-PEG24-Epoxomicin] the “sarkosyl-insoluble Tau in hippocampi of hTau-KI mice” value [1] was “strong increase of sarkosyl-insoluble Tau”, the “CP13 (phosphorylated S202 Tau) signal” value [2] was “significant elevation of CP13 signal” and the “sarkosyl-insoluble Tau, WT neurons” value [3] was “significant increase in sarkosyl-insoluble Tau”. The “sarkosyl-insoluble Tau, hTau-KI neurons” value [4] was “significant increase in sarkosyl-insoluble Tau”, the “efficacy against the proteasome relative to the parent inhibitor” value [5] was “moderately reduces the efficacy of iBEp relative to Epoxomicin” and the “ThioS staining in the CA1 region of hippocampi” value [6] was “strong increase in ThioS staining”. The “cell penetration judged from proteomics (no UPS substrates or autophagy markers accumulate)” value ([7]; DIV12-14 primary cortical neurons) was “does not detectably penetrate cells”, the “number of proteins increasing in the soluble fraction” value ([7]; vs DMSO) was “over 250 proteins” and the “number of proteins that become sarkosyl-insoluble” value ([7]; vs DMSO) was 52 proteins. The “location of the biotin signal of covalent proteasome inhibition (permeability)” value [8] was “only in the membrane fraction, and not in the cytosol”, the cytosolic proteasome activity [9] was “remains completely intact” and the “Tau phosphorylation sites (human S202, T205, T217, S404)” value [10] was “time-dependent increase in Tau phosphorylation at only 4 of 26 identified sites”. The “proteasome activity in the membrane fraction” value [11] was “almost entirely abrogated”, the “proteins covalently biotinylated in treated neurons (specificity)” value [12] was “covalent biotinylation of only three proteins” and the “injected concentration at which penetration into the cytosol is observed” value [13] was 64 µM. The “sarkosyl-insoluble Tau in hTau/E4-dKI neurons at the lowest dose” value ([14]; dose range 1000, 200, 40, 8 and 1.6 nM) was “accumulation of sarkosyl-insoluble Tau in hTau/E4-dKI neurons”, the “susceptibility to Tau aggregation, E4 neurons vs E3 neurons (more susceptible)” value [14, 18] was “over 25 fold” and the “susceptibility to Tau aggregation, hTau/E2-dKI vs hTau/E3-dKI neurons (less susceptible)” value [14, 18] was “over 10 fold”. For the same compound, the “increase in Puro-PLA-Tau signal relative to DMSO” value ([15]; DIV14 primary hippocampal neurons, puromycin 10 minutes) was roughly 3.5 fold, the “newly synthesized Tau puncta greater than 24 nm in diameter” value ([15]; normalized to puncta number per size bin with DMSO) was “over twofold increase” and the LC3bI/II [16] was “no change in either p62 or LC3bI/II levels”. For the same compound, the p62 levels [16] was “no change in either p62 or LC3bI/II levels” and the “phosphorylated Tau (AT8) signal in injected hippocampi” value [17] was “threefold induction of phosphorylated Tau signal”.
